In ChEMBL document CHEMBL5034027, “Synthesis and evaluation of stereoisomers of methylated catechin and epigallocatechin derivatives on modulating P-glycoprotein-mediated multidrug resistance in cancers” (Eur J Med Chem, 2021):
Values belong to the molecule of their own block, whether it stands above or below them.

Key:
[1] = tested on: L929; assay: Cytotoxicity against mouse L929 cells assessed as reduction in cell viability incubated for 72 hrs by MTS assay; type: cell-based; details: L929, 72 h
[2] = tested on: P-gp; assay: Selectivity index, ratio of IC50 for cytotoxicity against mouse L929 cells to EC50 for inhibition of P-gp in human LCC6MDR cells assessed as reversal of paclitaxel resistance; type: toxicity, cell-based; details: L929 cells (cytotoxicity IC50) and LCC6MDR cells (P-gp EC50), probe paclitaxel, read-out: Selectivity Index
[3] = Reversal of P-glycoprotein mediated drug resistance in human LCC6MDR cells assessed as reversal of paclitaxel resistance measured after 5 days by Cell Titer-Glo luminescence assay; type: cell-based; details: 120 h
[4] = Reversal of P-glycoprotein mediated drug resistance in human LCC6MDR cells assessed as reversal of Dox resistance measured after 5 days by Cell Titer-Glo luminescence assay; details: 120 h
[5] = target: T1, ATP-dependent translocase ABCB1 (Homo sapiens, UniProt P08183); assay: Inhibition of P-gp in human LCC6MDR cells assessed as intracellular DOX retention at 2 uM incubated for 60 mins by flow cytometry analysis relative to control; type: cell-based; set-up: scale not given: the % may be the effect or the level left; details: 1 h
[6] = target: T1, ATP-dependent translocase ABCB1; assay: Inhibition of P-gp in human LCC6MDR cells assessed as intracellular DOX retention at 2 uM incubated for 90 mins by flow cytometry analysis relative to control; type: cell-based; set-up: scale not given: the % may be the effect or the level left
[7] = target: T1, ATP-dependent translocase ABCB1; assay: Inhibition of P-gp in human LCC6MDR cells assessed as intracellular DOX retention at 2 uM incubated for 120 mins by flow cytometry analysis relative to control; type: cell-based; set-up: scale not given: the % may be the effect or the level left; details: 2 h

T1 sequence (P08183 whole entry): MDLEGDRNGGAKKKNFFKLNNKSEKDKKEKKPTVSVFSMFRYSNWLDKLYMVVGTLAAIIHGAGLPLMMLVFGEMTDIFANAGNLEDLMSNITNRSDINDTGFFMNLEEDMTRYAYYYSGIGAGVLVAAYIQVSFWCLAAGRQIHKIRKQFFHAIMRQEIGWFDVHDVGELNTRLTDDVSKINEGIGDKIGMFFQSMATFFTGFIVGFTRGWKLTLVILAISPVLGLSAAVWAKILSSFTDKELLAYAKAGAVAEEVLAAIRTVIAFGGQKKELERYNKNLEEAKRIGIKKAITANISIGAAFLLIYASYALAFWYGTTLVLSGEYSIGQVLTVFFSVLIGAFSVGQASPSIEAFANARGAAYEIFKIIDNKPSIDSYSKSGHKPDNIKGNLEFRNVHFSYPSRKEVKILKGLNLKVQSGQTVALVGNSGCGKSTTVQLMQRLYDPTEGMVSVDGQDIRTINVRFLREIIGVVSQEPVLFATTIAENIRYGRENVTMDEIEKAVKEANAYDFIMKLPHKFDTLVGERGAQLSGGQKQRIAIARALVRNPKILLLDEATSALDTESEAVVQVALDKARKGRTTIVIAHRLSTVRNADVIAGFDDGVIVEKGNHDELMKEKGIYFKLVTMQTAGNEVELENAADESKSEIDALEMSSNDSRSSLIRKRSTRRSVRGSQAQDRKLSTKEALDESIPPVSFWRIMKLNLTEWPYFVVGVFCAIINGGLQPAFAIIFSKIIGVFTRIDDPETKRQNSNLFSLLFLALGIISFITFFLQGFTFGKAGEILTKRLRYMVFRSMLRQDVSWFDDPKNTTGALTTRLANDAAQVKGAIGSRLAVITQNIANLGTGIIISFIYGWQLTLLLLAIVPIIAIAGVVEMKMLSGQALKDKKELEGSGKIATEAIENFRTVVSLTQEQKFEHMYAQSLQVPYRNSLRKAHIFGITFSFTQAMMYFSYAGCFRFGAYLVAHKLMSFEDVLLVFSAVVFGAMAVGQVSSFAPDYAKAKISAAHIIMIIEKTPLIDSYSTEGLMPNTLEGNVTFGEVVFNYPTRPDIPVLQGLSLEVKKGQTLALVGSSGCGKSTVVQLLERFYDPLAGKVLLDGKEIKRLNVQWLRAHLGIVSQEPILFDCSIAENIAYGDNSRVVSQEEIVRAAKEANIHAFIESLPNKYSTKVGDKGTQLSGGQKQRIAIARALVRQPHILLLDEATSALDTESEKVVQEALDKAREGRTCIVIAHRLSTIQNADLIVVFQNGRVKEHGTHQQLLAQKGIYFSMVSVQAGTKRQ

SMILES: COc1cc(OC)c2c(c1)O[C@H](c1ccc(OC)c(OC)c1)[C@@H](OC(=O)c1ccc(F)c(NC(=O)/C=C/c3cc(OC)c(OC)c(OC)c3)c1)C2
- IC50 [1]: > 100000 nM
- selectivity ratio [2]: > 563
- EC50 [3]: 178 nM

SMILES: COc1cc(OC)c2c(c1)O[C@H](c1cc(OC)c(OC)c(OC)c1)[C@H](OC(=O)c1ccc(F)c(NC(=O)c3cc(OC)c(OC)c(OC)c3)c1)C2
- EC50 [3]: 214 nM

SMILES: COc1cc(OC)c2c(c1)O[C@H](c1cc(OC)c(OC)c(OC)c1)[C@@H](OC(=O)c1ccc(F)c(NC(=O)c3cc(OC)c(OC)c(OC)c3)c1)C2
- EC50 [3]: 140 nM

SMILES: COc1cc(OC)c2c(c1)O[C@H](c1cc(OC)c(OC)c(OC)c1)[C@@H](OC(=O)c1ccc(F)c(NC(=O)c3ccc(OC)c(OC)c3)c1)C2
- EC50 [3]: 171 nM

SMILES: COc1ccc(CCN(C)CCCC(C#N)(c2ccc(OC)c(OC)c2)C(C)C)cc1OC (stereo not given)
- EC50 [4]: 254 nM

SMILES: COc1cc(OC)c2c(c1)O[C@@H](c1cc(OC)c(OC)c(OC)c1)[C@H](OC(=O)c1ccc(F)c(NC(=O)c3cc(OC)c(OC)c(OC)c3)c1)C2
- IC50 [1]: > 100000 nM
- selectivity ratio [2]: > 741
- EC50 [3]: 135 nM

- Activity [5]: 87%
- Activity [6]: 89%
- Activity [7]: 90%
SMILES: COc1cc(OC)c2c(c1)O[C@H](c1ccc(OC)c(OC)c1)[C@@H](OC(=O)c1ccc(F)c(NC(=O)c3cc(OC)c(OC)c(OC)c3)c1)C2

SMILES: O=C(O[C@@H]1Cc2c(O)cc(O)cc2O[C@@H]1c1cc(O)c(O)c(O)c1)c1cc(O)c(O)c(O)c1 [EPIGALOCATECHIN GALLATE]
- EC50 [3]: > 1000 nM

SMILES: COc1cc(OC)c2c(c1)O[C@H](c1cc(OC)c(OC)c(OC)c1)[C@H](OC(=O)c1ccc(F)c(NC(=O)c3ccc(OC)c(OC)c3)c1)C2
- EC50 [3]: 159 nM
